Biological target: Dual specificity protein phosphatase 3 (Homo sapiens) (UniProt P51452)
Experiment: Biochemical DiFMUP fluorescent assay for VHR phosphatase inhibition, SAR follow up (AID 2074)
Settings: recombinant VHR phosphatase, DiFMUP fluorescence

Sequence of Dual specificity protein phosphatase 3 (Homo sapiens) (P51452 whole entry, looked up): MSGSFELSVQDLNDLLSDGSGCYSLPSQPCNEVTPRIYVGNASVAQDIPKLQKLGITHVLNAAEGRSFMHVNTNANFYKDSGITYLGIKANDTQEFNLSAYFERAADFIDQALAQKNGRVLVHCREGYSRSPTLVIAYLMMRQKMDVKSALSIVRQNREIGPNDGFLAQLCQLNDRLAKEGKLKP

Row | Compound | IC50 [nM]
1 | O=C1/C(=C/c2cn(-c3ccccc3)nc2-c2ccc(OCc3ccccc3Cl)cc2)SC(=S)N1CCS(=O)(=O)O | 71
2 | O=C1/C(=C/c2cn(-c3ccccc3)nc2-c2ccc(OCc3ccc(Cl)cc3)cc2)SC(=S)N1CCS(=O)(=O)O | 18
3 | Cc1ccc(-c2nn(-c3ccccc3)cc2/C=C2\SC(=S)N(CCS(=O)(=O)O)C2=O)cc1 | 3100
4 | O=C1/C(=C/c2cn(-c3ccccc3)nc2-c2ccc(Cl)cc2)SC(=S)N1CCS(=O)(=O)O | 1800
5 | O=C1/C(=C/c2cn(-c3ccccc3)nc2-c2ccc(S(=O)(=O)N3CCOCC3)cc2)SC(=S)N1CCS(=O)(=O)O | 2400
6 | COc1ccc(-c2nn(-c3ccccc3)cc2/C=C2\SC(=S)N(CCS(=O)(=O)O)C2=O)cc1 | 1800
7 | O=C1/C(=C/c2cn(-c3ccccc3)nc2-c2ccc(OCc3ccccc3)cc2)SC(=S)N1CCS(=O)(=O)O | 78
